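Assay format: 96-well plates, 48-hour exposure. Abbreviation: GI50, concentration required for 50% inhibition of growth. TGI: concentration producing complete growth inhibition.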 Where a SMILES comes first, the peptide text is derived from it. The star is where a group is joined. Boc = CC(C)(C)OC(=O)* Where only a bound is given, the exact number is not on record here.

One assay deals with RXF 393 renal. The experiment in a line: NCI tumour cell line growth inhibition, 48 h.
`COc1ccc2nc3cc(Cl)ccc3c(NCCCNCCCNc3c4ccc(Cl)cc4nc4ccc(OC)cc34)c2c1` registered a TGI of 0.453 µM.

With `O=c1oc(-c2ccc(O)c(O)c2)cc2cccc(O)c12`, the TGI amounted to 69.3 µM.

Take `COc1cc2c(cc1-c1c(C)noc1C)cc(C)c(=O)n2Cc1ccccn1`: the GI50 is 0.498 µM and the TGI stood at 5 µM.

Take `CCOC(=O)c1c(-c2ccc(OC)cc2)c(C#N)c(=S)n(C2OC(COC(C)=O)C(OC(C)=O)C(OC(C)=O)C2OC(C)=O)c1C` (stereo not given): the TGI is > 100 µM.

For `C1=CC2=CC=CC3c4nc5ccc6ccccc6c5nc4C(=C1)C23` (stereo not given), the TGI was > 100 µM.

`O=C(NCCCN(CCCCN(CCCNC(=O)C(F)(F)F)Cc1ccccc1)Cc1ccccc1)C(F)(F)F` displayed a TGI of 32.6 µM.

For the compound `O=C1/C(=C\c2cccc(Oc3ccccc3)c2)S(=O)(=O)C(c2ccccc2)N1Cc1ccccc1` (stereo not given), the TGI came to 77.5 µM.

Compound `O=C(N=Nc1cc(Cl)ccc1Cl)NNc1cc(Cl)ccc1Cl` returned a TGI of 25 µM.

Take `CCOC(=O)NC(=S)NN(C)C1=NCC(C)(C)S1`: the TGI is > 100 µM.

Take `C/C=C/C=C/c1nc(C#N)c(N)o1`: the TGI was > 100 µM.

Turning to `CC(C)(C)OC(=O)NCC(=O)NCC(=O)NCC(=O)NCC(=O)O` (Boc-GGGG-OH), the TGI is > 100 µM.

As for `COc1cc(C2SCC(=O)N2c2ccc(NC(=O)c3ccc(N4C(=O)CSC4c4cc(OC)c(OC)c(OC)c4)cc3)cc2)cc(OC)c1OC` (stereo not given), the TGI was > 100 µM.

The test system of the next assay is HOP-62 NSCLC. The experiment in a line: NCI tumour cell line growth inhibition, 48 h.
Consider `O=P(c1ccccc1)(c1ccccc1)N1O[C@@H](c2ccccc2)C=C[C@H]1c1ccccc1`, for which the TGI stood at 46.5 µM.

Regarding `COC(=O)[C@]12CC[C@H]3CN(C(=O)OCc4ccccc4)[C@H]([C@H]31)[C@H](c1ccco1)N2S(=O)(=O)c1ccc(C)cc1`, the TGI is 74.2 µM.

`O=C1C[C@H](Sc2ccccc2)C2(OCCO2)[C@@H](Sc2ccccc2)C1` gave a TGI of 13.6 µM.

In turn, `CCCNC(=O)CCC(C)[C@H]1CCC2C3C(C[C@H](OC(C)=O)[C@@]21C)[C@@]1(C)CCC2(C[C@H]1C[C@H]3OC(C)=O)OOC1(CCC(C)CC1)OO2` (stereo not given in full) came in with a TGI of 3.47 µM.

For `CCN(C(=S)N[C@@H](Cc1ccccc1)C(=O)N[C@@H](CC(C)C)C(=O)OC)c1ccccc1`, the TGI is > 100 µM.

Take `CCCn1c(CN(Cc2nc3ccccc3n2CCC)Cc2nc3ccccc3n2CCC)nc2ccccc21`: the TGI was > 91 µM.

`CSc1c(C#N)c(N)n2c1C(=O)N(c1ccccc1)C2=S`: the TGI was > 100 µM.

As to `N#CCCN(CCC#N)c1ccc(/C=C2\N=C(c3ccccc3)N(c3ccc(Cl)cc3)C2=O)cc1`, the TGI was > 100 µM.

Compound `Cc1c(S(=O)(=O)/N=C(\N)Nc2ccc(Cl)cc2)sc2ccc(Cl)cc12` displayed a TGI of 36.9 µM.

For the compound `NNC(=O)c1ccc[n+](CCc2ccccc2)c1`, the TGI is > 100 µM.

Regarding `COc1cc(NS(C)(=O)=O)ccc1N1Cc2cnc3ccc4[nH]c(C)cc1c4c23`, the TGI stood at 71.9 µM.

Turning to `O=C1CN2C(c3ccccc3)=NN(c3ccc([N+](=O)[O-])cc3)C2(c2ccccc2)c2cc(Cl)ccc2N1CC1CC1` (stereo not given), the TGI was > 100 µM.

In turn, `COc1ccc2cc3c4cc5c(cc4cc[n+]3cc2c1OC)OCO5` returned a TGI of 64.3 µM.

Turning to `CCN(CCO)CC1COc2ccccc2O1` (stereo not given), the TGI was > 100 µM.

In the case of `COc1ccc2nc3cc(Cl)ccc3c(NCCCNCCCNc3c4ccc(Cl)cc4nc4ccc(OC)cc34)c2c1`, the TGI was found to be 0.14 µM.

In turn, `O=c1oc(-c2ccc(O)c(O)c2)cc2cccc(O)c12` showed a TGI of 47.3 µM.

Take `COc1cc2c(cc1-c1c(C)noc1C)cc(C)c(=O)n2Cc1ccccn1`: the GI50 was 0.489 µM and the TGI was > 100 µM.

`CCOC(=O)c1c(-c2ccc(OC)cc2)c(C#N)c(=S)n(C2OC(COC(C)=O)C(OC(C)=O)C(OC(C)=O)C2OC(C)=O)c1C` (stereo not given): the TGI is > 100 µM.

For the compound `C1=CC2=CC=CC3c4nc5ccc6ccccc6c5nc4C(=C1)C23` (stereo not given), the TGI is > 100 µM.

Regarding `O=C1/C(=C\c2cccc(Oc3ccccc3)c2)S(=O)(=O)C(c2ccccc2)N1Cc1ccccc1` (stereo not given), the TGI was > 100 µM.

For the compound `O=C(N=Nc1cc(Cl)ccc1Cl)NNc1cc(Cl)ccc1Cl`, the TGI is 40.7 µM.

Take `CCOC(=O)NC(=S)NN(C)C1=NCC(C)(C)S1`: the TGI was > 100 µM.

As to `C/C=C/C=C/c1nc(C#N)c(N)o1`, the TGI was > 100 µM.

As for `CC(C)(C)OC(=O)NCC(=O)NCC(=O)NCC(=O)NCC(=O)O` (Boc-GGGG-OH), the TGI was > 100 µM.

Regarding `COc1cc(C2SCC(=O)N2c2ccc(NC(=O)c3ccc(N4C(=O)CSC4c4cc(OC)c(OC)c(OC)c4)cc3)cc2)cc(OC)c1OC` (stereo not given), the TGI is > 100 µM.

In another assay the test system is UACC-257 melanoma. In words: NCI tumour cell line growth inhibition, 48 h.
On to `O=P(c1ccccc1)(c1ccccc1)N1O[C@@H](c2ccccc2)C=C[C@H]1c1ccccc1`, for which the TGI was found to be 26.3 µM.

As to `COC(=O)[C@]12CC[C@H]3CN(C(=O)OCc4ccccc4)[C@H]([C@H]31)[C@H](c1ccco1)N2S(=O)(=O)c1ccc(C)cc1`, the TGI worked out at 50.9 µM.

Consider `O=C1C[C@H](Sc2ccccc2)C2(OCCO2)[C@@H](Sc2ccccc2)C1`, for which the TGI was 4.51 µM.

`CCCNC(=O)CCC(C)[C@H]1CCC2C3C(C[C@H](OC(C)=O)[C@@]21C)[C@@]1(C)CCC2(C[C@H]1C[C@H]3OC(C)=O)OOC1(CCC(C)CC1)OO2` (stereo not given in full) yielded a TGI of 90.9 µM.

As for `CCN(C(=S)N[C@@H](Cc1ccccc1)C(=O)N[C@@H](CC(C)C)C(=O)OC)c1ccccc1`, the TGI was > 100 µM.

Take `CCCn1c(CN(Cc2nc3ccccc3n2CCC)Cc2nc3ccccc3n2CCC)nc2ccccc21`: the TGI was > 42.5 µM.

`CSc1c(C#N)c(N)n2c1C(=O)N(c1ccccc1)C2=S`: the TGI was > 100 µM.

Consider `N#CCCN(CCC#N)c1ccc(/C=C2\N=C(c3ccccc3)N(c3ccc(Cl)cc3)C2=O)cc1`, for which the TGI was > 100 µM.

The compound `Cc1c(S(=O)(=O)/N=C(\N)Nc2ccc(Cl)cc2)sc2ccc(Cl)cc12` came in with a TGI of 40.4 µM.

Regarding `NNC(=O)c1ccc[n+](CCc2ccccc2)c1`, the TGI was > 100 µM.

On to `COc1cc(NS(C)(=O)=O)ccc1N1Cc2cnc3ccc4[nH]c(C)cc1c4c23`, for which the TGI was > 100 µM.

Regarding `O=C1CN2C(c3ccccc3)=NN(c3ccc([N+](=O)[O-])cc3)C2(c2ccccc2)c2cc(Cl)ccc2N1CC1CC1` (stereo not given), the TGI is > 100 µM.

On to `COc1ccc2cc3c4cc5c(cc4cc[n+]3cc2c1OC)OCO5`, for which the TGI was found to be 30.4 µM.

As for `CCN(CCO)CC1COc2ccccc2O1` (stereo not given), the TGI is > 100 µM.

The compound `COc1ccc2nc3cc(Cl)ccc3c(NCCCNCCCNc3c4ccc(Cl)cc4nc4ccc(OC)cc34)c2c1` gave a TGI of 1.76 µM.

`O=c1oc(-c2ccc(O)c(O)c2)cc2cccc(O)c12` yielded a TGI of 61.3 µM.

Regarding `COc1cc2c(cc1-c1c(C)noc1C)cc(C)c(=O)n2Cc1ccccn1`, the GI50 was 2.18 µM and the TGI was > 100 µM.

For `CCOC(=O)c1c(-c2ccc(OC)cc2)c(C#N)c(=S)n(C2OC(COC(C)=O)C(OC(C)=O)C(OC(C)=O)C2OC(C)=O)c1C` (stereo not given), the TGI was > 100 µM.

For the compound `C1=CC2=CC=CC3c4nc5ccc6ccccc6c5nc4C(=C1)C23` (stereo not given), the TGI is > 100 µM.

The compound `O=C(NCCCN(CCCCN(CCCNC(=O)C(F)(F)F)Cc1ccccc1)Cc1ccccc1)C(F)(F)F` showed a TGI of 16.9 µM.

Regarding `O=C1/C(=C\c2cccc(Oc3ccccc3)c2)S(=O)(=O)C(c2ccccc2)N1Cc1ccccc1` (stereo not given), the TGI turned out to be 62.2 µM.

`CCOC(=O)NC(=S)NN(C)C1=NCC(C)(C)S1`: the TGI is > 100 µM.

For `C/C=C/C=C/c1nc(C#N)c(N)o1`, the TGI is > 100 µM.

For `CC(C)(C)OC(=O)NCC(=O)NCC(=O)NCC(=O)NCC(=O)O` (Boc-GGGG-OH), the TGI was > 100 µM.

In the case of `COc1cc(C2SCC(=O)N2c2ccc(NC(=O)c3ccc(N4C(=O)CSC4c4cc(OC)c(OC)c(OC)c4)cc3)cc2)cc(OC)c1OC` (stereo not given), the TGI is > 100 µM.

Source of the values: PubChem BioAssay (NCI).
